This note sets out measurements from patent publication US11369631B1, “Oral gelling liquid formulations” (UMM Rainforest Innovations, priority 2019, dated 2022).

The series is described as follows: Rheological analysis of thermal gelation temperature (oscillation temperature sweep, abrupt increase in G′). The following applies: for αG, rate of change in gelation temperature as a function of additive composition: 2% w/v HPMC 2910, linear fit TGel=T0−αGx (FIG. 5). The class given is physicochemical. An excerpt: Rheology is the most direct and reliable way to determine the sol-gel transition temperature, as well as characterize the rheological properties of both solution and subsequent gel. As a result, a rheometer was chosen to determine the sol-gel transition temperature of the HPMC solutions disclosed. Rheological properties such as dynamic moduli G′, G″, and complex viscosity η* change when the temperature is in the vicinity of the sol-gel transition. The rheometer is able to measure these properties during heating.
During the routine measurements in these studies, the following procedure was observed: (i) Each HPMC solution was placed on to the bottom Peltier plate of the Discovery Hybrid HR-2 rheometer (TA Instruments, Newcastle, Del., USA) equipped with a Peltier […] temperature system and a 50 mm parallel plate; (ii) Oscillation temperature sweep was performed to determine the effect of temperatures on complex viscosity (η*), storage modulus (G′), and loss modulus (G″) at angular frequency of 1 rad/s and stress applied was 0.4 Pa; (iii) In this study samples were heated in the range of 10-80° C. at a rate of 1° C./min. A thin layer of low-viscosity silicon oil was placed around the sample to prevent dehydration during measurements; (iv) All measurements were repeated in triplicate. The abrupt increase in G′, which is accompanied by a sharp increase in viscosity was considered to be a suitable way to define a thermal gelation temperature.
Statistical differences in the thermal gelation temperature of different hypromellose formulations containing different halide salt concentrations were determined using a one-way ANOVA test using Microsoft Excel Analysis Toolpak (Microsoft Inc., Redmond, Wash.). P values of <0.05 were considered statistically significant.

The structures appear in SMILES notation.

Regarding `[Cl-].[Na+]` [NaCl, sodium chloride], the “αG, rate of change in gelation temperature as a function of additive composition” value is on record as ~4.0.
Consider `[F-].[Na+]` [NaF, Sodium fluoride], for which the “αG, rate of change in gelation temperature as a function of additive composition” value is ~14.5. Moreover, the “factor by which αG-NaF is greater than αG-NaCl” value (2% w/v HPMC 2910) was ~3.6 times.
